This assay deals with NMDA receptor (Rattus norvegicus, UniProt P35439). Nature of the assay: [3H] MK-801 binding assay. Conditions: 50 μM glutamate; for Potency: rat forebrain crude synaptic membranes, [3H]MK-801 5 nM. On the procedure: Male 2-3 month old rats were decapitated without anesthesia by guillotine, and the brains were rapidly removed (˜90 sec) and whole cortex and hippocampus dissected on an ice cold platform, frozen on dry ice, and stored at −80° C. Samples were homogenized in 20 volumes of ice cold 5 mM Tris-HCl pH 7.4 by Brinkman Polytron and pelleted 48,000×g for 20 min at 4° C., and washed an additional 3 times as described above. Membranes were then resuspended in 5 mM EDTA and 15 mM Tris-HCl pH 7.4 and incubated for 1 hr at 37° C., membranes pelleted at 48,000×g for 20 min at 4° C., snap frozen in liquid nitrogen, and stored at −80° C. On the day of the experiment, membranes were thawed at room temperature and washed an additional 7 times in ice cold 5 mM Tris-HCl (pH 7.4) as described above. After the last wash, membranes were resuspended in assay buffer (5 mM Tris-acetate pH 7.4), and protein content was determined by the BCA assay.
[^3H] […] Then the tubes were washed three times with assay buffer (5 mM Tris-acetate PH 7.4), and the filters were analyzed by liquid scintillation to calculate the disintegrations per minute (DPM). Zero levels were determined in the absence of any glycine ligand and in the presence of 30 μM 5,7-Dichlorokynurenic acid (5,7-DCKA). Maximal stimulation was measured in the presence of 1 mM glycine. 50 μM glutamate was present in all samples.
For each data point (i.e., a single concentration of the test compound), the % maximal [^3H]
The efficacy for each compound, expressed as the % increase in [^3H]

Residues, ends and D or L forms follow the SMILES beside them.

`C[C@@H](O)[C@H](NC(=O)[C@@H]1CCCN1C(=O)[C@@H]1CCCN1C(=O)[C@@H](N)CO)C(N)=O` [Compound A, (S)—N-((2S,3R)-1-amino-3-hydroxy-1-oxobutan-2-yl)-1-((S)-1-((S)-2-amino-3-hydroxypropanoyl)pyrrolidine-2-carbonyl)pyrrolidine-2-carboxamide] (H-SPPT-NH2) gave a Potency of 5 pM. Molecule `C[C@@H](O)[C@H](N)C(=O)N1CCC[C@H]1C(=O)N1CCCC1(Cc1ccccc1)C(=O)N[C@H](C(N)=O)[C@@H](C)O` (stereo partly drawn) [E, N-((2S,3R)-1-amino-3-hydroxy-1-oxobutan-2-yl)-1-((S)-1-((2S,3R)-2-amino-3-hydroxybutanoyl)-pyrrolidine-2-carbonyl)-2-benzylpyrrolidine-2-carboxamide] returned a Potency of 0.2 pM.

In turn, `C[C@@H](O)[C@H](N)C(=O)N1CCC[C@H]1C(=O)N1CCC[C@H]1C(=O)N[C@@H](CO)C(N)=O` [Compound B, (S)—N—((S)-1-amino-3-hydroxy-1-oxopropan-2-yl)-1-((S)-1-((2S,3R)-2-amino-3-hydroxybutanoyl)pyrrolidine-2-carbonyl)pyrrolidine-2-carboxamide] (H-TPPS-NH2) returned a Potency of 6 pM. For the same molecule, the “Efficacy (% Increase in [3H] MK-801 Binding)” value (best-fit top value, relative to 1 mM glycine maximal stimulation) came to 24%.

On to `NC(=O)[C@H](CO)NC(=O)[C@@H]1CCCN1C(=O)[C@@H]1CCCN1C(=O)[C@@H](N)CO` [Compound C, (S)—N—((S)-1-amino-3-hydroxy-1-oxopropan-2-yl)-1-((S)-1-((S)-2-amino-3-hydroxy-propanoyl)-pyrrolidine-2-carbonyl)-pyrrolidine-2-carboxamide] (H-SPPS-NH2), for which the Potency was 16 pM.

These data come from patent publication US8673843B2, “NMDA receptors modulators and uses thereof” (Northwestern University, priority 2010, dated 2014).
